Measured values: patent publication US9994555B2, “Chromenone inhibitors of monocarboxylate transporters” (THE SCRIPPS RESEARCH INSTITUTE, priority 2015, dated 2018)

Test system: Raji (Burkitt's) lymphoma cells
Experiment: MTT assay for 4-day viability of Raji (Burkitt's) lymphoma cells
Format: cell-based
Conditions: Homo sapiens, 96 h, Raji (Burkitt's) lymphoma cells highly expressing MCT1, estimated EC50 given as bin, read-out: approximate potency (EC50)
Source text: Specific Examples of compounds of the invention, with estimated EC50 values determined using an MTT assay for 4-day viability of Raji (Burkitt's) lymphoma cells, a cell line known to highly express MCT1 and to be sensitive to small molecule MCT inhibitors,^4 are shown in Table 8. Assay protocols follow those described in the literature.^4 Other assays that are not described here but that are standard in the field, such as an assay for competitive inhibition of transport of radiolabeled lactic acid, an MCT substrate, may also be useful in establishing mechanism of action of these compounds.

Compound | EC50
CC(C)c1cc(=O)c2c(OCCCCO)cc(OCc3ccnc4ccccc34)cc2o1 [Example 30, 5-(4-hydroxybutoxy)-2-isopropyl-7-(quinolin-4-ylmethoxy)-4H-chromen-4-one] | ≤ 0.1 µM
Cc1cc(=O)c2c(OCc3ccccc3CO)cc(Oc3ccnc4ccccc34)cc2o1 [Example 31, 5-((2-(hydroxymethyl)benzyl)oxy)-2-methyl-7-(quinolin-4-yloxy)-4H-chromen-4-one] | 0.1 to 1 µM
CC(C)c1cc(=O)c2c(OCc3ccccc3CO)cc(Oc3cc(C(F)(F)F)ccn3)cc2o1 [Example 32, 5-((2-(hydroxymethyl)benzyl)oxy)-2-isopropyl-7-((4-(trifluoromethyl)pyridin-2-yl)oxy)-4H-chromen-4-one] | 0.1 to 1 µM
CC(C)c1cc(=O)c2c(OCc3ccccc3CO)cc(OCc3cncnc3)cc2o1 [Example 33, 5-((2-(hydroxymethyl)benzyl)oxy)-2-isopropyl-7-(pyrimidin-5-ylmethoxy)-4H-chromen-4-one] | 0.1 to 1 µM
CC(C)c1cc(=O)c2c(OCCCCO)cc(COc3cccc4ccccc34)cc2o1 [Example 35, 5-(4-hydroxybutoxy)-2-isopropyl-7-((naphthalen-1-yloxy)methyl)-4H-chromen-4-one] | 1 to 10 µM
CC(C)c1cc(=O)c2c(CCCCO)cc(OCc3cccc4ccccc34)cc2o1 [Example 36, 5-(4-hydroxybutyl)-2-isopropyl-7-(naphthalen-1-ylmethoxy)-4H-chromen-4-one] | 1 to 10 µM
CC(C)c1cc(=O)c2c(CCCCCO)cc(OCc3cccc4ccccc34)cc2o1 [Example 37, 5-(5-hydroxypentyl)-2-isopropyl-7-(naphthalen-1-ylmethoxy)-4H-chromen-4-one] | 1 to 10 µM
CC(C)c1cc(=O)c2c(-c3cccc(CCO)c3)cc(OCc3cccc4ccccc34)cc2o1 [Example 38, 5-(3-(2-hydroxyethyl)phenyl)-2-isopropyl-7-(naphthalen-1-ylmethoxy)-4H-chromen-4-one] | 1 to 10 µM
CC(C)c1cc(=O)c2c(-c3cc(CO)ccc3Cl)cc(OCc3cccc4ccccc34)cc2o1 [Example 39, 5-(2-chloro-5-(hydroxymethyl)phenyl)-2-isopropyl-7-(naphthalen-1-ylmethoxy)-4H-chromen-4-one] | 1 to 10 µM
CC(C)c1cc(=O)c2c(-c3cc(CO)ccc3F)cc(OCc3cccc4ccccc34)cc2o1 [Example 40, 5-(2-fluoro-5-(hydroxymethyl)phenyl)-2-isopropyl-7-(naphthalen-1-ylmethoxy)-4H-chromen-4-one] | 1 to 10 µM
CC(C)c1cc(=O)c2c(-c3cccc(CO)c3F)cc(OCc3cccc4ccccc34)cc2o1 [Example 41, 5-(2-fluoro-3-(hydroxymethyl)phenyl)-2-isopropyl-7-(naphthalen-1-ylmethoxy)-4H-chromen-4-one] | ≥ 10 µM
CC(C)c1cc(=O)c2c(-c3cccc(CO)c3)cc(Oc3ccnc4ccccc34)cc2o1 [Example 42, 5-(3-(hydroxymethyl)phenyl)-2-isopropyl-7-(quinolin-4-yloxy)-4H-chromen-4-one] | 0.1 to 1 µM
CC(C)c1cc(=O)c2c(-c3cccc(CO)c3)cc(OCc3cccc4ccccc34)cc2o1 [Example 43, 5-(3-(hydroxymethyl)phenyl)-2-isopropyl-7-(naphthalen-1-ylmethoxy)-4H-chromen-4-one] | 0.1 to 1 µM
CC(C)c1cc(=O)c2c(-c3ccccc3CO)cc(OCc3cccc4ccccc34)cc2o1 [Example 44] | ≥ 10 µM
CC(C)c1cc(=O)c2c(-c3ccc(CO)cc3)cc(OCc3cccc4ccccc34)cc2o1 [Example 45] | 1 to 10 µM
CC(C)c1cc(=O)c2c(NCCCCO)cc(OCc3cccc4ccccc34)cc2o1 [Example 46, 5-((4-hydroxybutyl)amino)-2-isopropyl-7-(naphthalen-1-ylmethoxy)-4H-chromen-4-one] | 1 to 10 µM
CC(C)c1cc(=O)c2c(NCCCCCO)cc(OCc3cccc4ccccc34)cc2o1 [Example 47, 5-((5-hydroxypentyl)amino)-2-isopropyl-7-(naphthalen-1-ylmethoxy)-4H-chromen-4-one] | ≥ 10 µM
CC(C)c1cc(=O)c2c(NCCCO)cc(OCc3cccc4ccccc34)cc2o1 [Example 48, 5-((3-hydroxypropyl)amino)-2-isopropyl-7-(naphthalen-1-ylmethoxy)-4H-chromen-4-one] | 1 to 10 µM
CC(C)c1cc(=O)c2c(Nc3cccc(CO)c3)cc(OCc3cccc4ccccc34)cc2o1 [Example 49, 5-((3-(hydroxymethyl)phenyl)amino)-2-isopropyl-7-(naphthalen-1-ylmethoxy)-4H-chromen-4-one] | ≥ 10 µM
CC(C)c1cc(=O)c2c(N3CCC(CO)CC3)cc(OCc3cccc4ccccc34)cc2o1 [Example 50, 5-(4-(hydroxymethyl)piperidin-1-yl)-2-isopropyl-7-(naphthalen-1-ylmethoxy)-4H-chromen-4-one] | 1 to 10 µM
